# Assays:
# rat bone marrow cultures [1] = assay: APA in rat bone marrow cultures treated with BaP; assay type: cell-based; conditions: increasing concentrations of BaP, ten-day old cultures
# Protocol: In this experiment, the effects of the aryl hydrocarbon, benzo-a-pyrene (BaP) on the early events occurring during osteogenesis were determined. Ten-day old rat bone marrow cultures were treated with increasing concentrations of BaP. The effect of this treatment was monitored by APA as set out above.
# rat bone marrow cultures [2] = assay: Mineral levels in rat bone marrow cultures treated with BaP; assay type: cell-based; conditions: BaP at 10^−8M
smiles,measurement,setting,value
"c1ccc2c(c1)cc1ccc3cccc4ccc2c1c34 [BaP, benzo-a-pyrene, reference compound]",inhibition of alkaline phosphatase,rat bone marrow cultures [1],increased inhibition of alkaline phosphatase with increasing BaP concentration
same,inhibition of mineral levels,rat bone marrow cultures [2],≤ 90%
